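Each compound was tested at five concentrations against cells in 96-well plates for 48 hours. TGI denotes the concentration required for complete inhibition of growth.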
Experiments:
Assay in all cases: growth of human tumour cells (NCI), 48 h
[1] = tested on: A498 renal
[2] = tested on: UACC-257 melanoma
[3] = tested on: CAKI-1 renal
[4] = tested on: SF-295 CNS
[5] = tested on: 786-0 renal
[6] = tested on: SK-MEL-28 melanoma
[7] = tested on: MALME-3M melanoma
[8] = tested on: MDA-N
[9] = tested on: K-562 leukemia
[10] = tested on: HCT-15 colon
[11] = tested on: HCT-116 colon
[12] = tested on: T-47D breast
[13] = tested on: EKVX NSCLC
[14] = tested on: SNB-75 CNS
[15] = tested on: KM12 colon
[16] = tested on: U251 CNS
[17] = tested on: IGROV1 ovarian
[18] = tested on: A549 NSCLC
[19] = tested on: M14 melanoma
[20] = tested on: OVCAR-4 ovarian
[21] = tested on: MOLT-4 leukemia
[22] = tested on: MDA-MB-435
[23] = tested on: SN12C renal
[24] = tested on: NCI-H23 lung
[25] = tested on: TK-10 renal
[26] = tested on: DU-145 prostate
[27] = tested on: RPMI-8226 leukemia
[28] = tested on: SR leukemia
[29] = tested on: NCI-H522 lung
[30] = tested on: UACC-62 melanoma
[31] = tested on: MCF7 breast
[32] = tested on: COLO 205 colon
[33] = tested on: HCC-2998 colon
[34] = tested on: ACHN renal
[35] = tested on: HOP-62 NSCLC
[36] = tested on: PC-3 prostate
[37] = tested on: OVCAR-5 ovarian
[38] = tested on: SW-620 colon
[39] = tested on: CCRF-CEM leukemia
[40] = tested on: HOP-92 NSCLC
[41] = tested on: SNB-19 CNS
[42] = tested on: NCI/ADR-RES ovarian
[43] = tested on: BT-549 breast
[44] = tested on: SK-MEL-2 melanoma
[45] = tested on: HS 578T breast
[46] = tested on: OVCAR-8 ovarian
[47] = tested on: MDA-MB-231 breast
[48] = tested on: LOX IMVI melanoma
[49] = tested on: SK-OV-3 ovarian
[50] = tested on: UO-31 renal
[51] = tested on: SK-MEL-5 melanoma
[52] = tested on: RXF 393 renal
[53] = tested on: NCI-H460 lung
[54] = tested on: HT29 colon
[55] = tested on: NCI-H226 lung
[56] = tested on: SF-268 CNS
[57] = tested on: HL-60(TB) leukemia
[58] = tested on: OVCAR-3 ovarian
[59] = tested on: SF-539 CNS

Cc1nnc(N)nc1C/C=C/C(Sc1ccc(Cl)cc1)c1ccccc1 (stereo unspecified)
TGI [1]: 23.9 µM
TGI [2]: 17 µM
TGI [3]: > 39.5 µM
TGI [4]: 10.9 µM
TGI [5]: 11.4 µM
TGI [6]: > 38.1 µM
TGI [7]: 14.6 µM
TGI [8]: > 95.9 µM
TGI [9]: > 100 µM
TGI [10]: 15.9 µM
TGI [11]: > 27.8 µM
TGI [12]: > 48.8 µM
TGI [13]: 16.1 µM
TGI [14]: 16.5 µM
TGI [15]: 15.7 µM
TGI [16]: 26.9 µM
TGI [17]: 5.37 µM
TGI [18]: > 64.7 µM
TGI [19]: 20.7 µM
TGI [20]: 19.6 µM
TGI [21]: > 32 µM
TGI [22]: 14.9 µM
TGI [23]: > 48.1 µM
TGI [24]: 22.2 µM
TGI [25]: 21.9 µM
TGI [26]: > 45.4 µM
TGI [27]: > 42.9 µM
TGI [28]: > 100 µM
TGI [29]: 3.69 µM
TGI [30]: 10.1 µM
TGI [31]: > 34.7 µM
TGI [32]: > 41.9 µM
TGI [33]: 23.4 µM
TGI [34]: 18.2 µM
TGI [35]: 19.6 µM
TGI [36]: 14.6 µM
TGI [37]: 23 µM
TGI [38]: > 39.7 µM
TGI [39]: 3.23 µM
TGI [40]: 23.7 µM
TGI [41]: 22.7 µM
TGI [42]: > 34.2 µM
TGI [43]: 27.7 µM
TGI [44]: 21 µM
TGI [45]: 24.6 µM
TGI [46]: 34.8 µM
TGI [47]: > 33.1 µM
TGI [48]: 7.7 µM
TGI [49]: 24.4 µM
TGI [50]: 12.4 µM
TGI [51]: > 100 µM
TGI [52]: 16.2 µM
TGI [53]: 17.3 µM
TGI [54]: 25.6 µM
TGI [55]: 4.64 µM
TGI [56]: 21.6 µM
TGI [57]: 6.13 µM

O=C(Oc1cccc2cccnc12)c1cc2cc(CCl)ccc2oc1=O
TGI [1]: > 100 µM
TGI [2]: > 100 µM
TGI [3]: 85.5 µM
TGI [4]: > 100 µM
TGI [5]: 46.7 µM
TGI [6]: > 100 µM
TGI [7]: 39.7 µM
TGI [8]: > 100 µM
TGI [9]: > 100 µM
TGI [10]: 24.2 µM
TGI [11]: 13.8 µM
TGI [12]: 54.5 µM
TGI [13]: 6.38 µM
TGI [14]: > 100 µM
TGI [15]: > 100 µM
TGI [16]: 88.4 µM
TGI [17]: > 100 µM
TGI [58]: > 100 µM
TGI [18]: > 100 µM
TGI [19]: 88.4 µM
TGI [20]: > 100 µM
TGI [21]: > 100 µM
TGI [22]: > 100 µM
TGI [23]: 54.4 µM
TGI [24]: 42.8 µM
TGI [25]: > 100 µM
TGI [26]: > 100 µM
TGI [27]: > 100 µM
TGI [28]: > 100 µM
TGI [29]: 8.87 µM
TGI [30]: 36.8 µM
TGI [31]: 11.4 µM
TGI [32]: 39.9 µM
TGI [33]: 50.6 µM
TGI [34]: > 100 µM
TGI [35]: > 100 µM
TGI [36]: 31.3 µM
TGI [37]: > 100 µM
TGI [38]: > 100 µM
TGI [40]: > 100 µM
TGI [41]: > 100 µM
TGI [42]: > 100 µM
TGI [43]: > 100 µM
TGI [44]: 79.8 µM
TGI [45]: > 100 µM
TGI [46]: > 100 µM
TGI [47]: 89.4 µM
TGI [59]: > 100 µM
TGI [48]: > 100 µM
TGI [49]: > 100 µM
TGI [50]: 72.2 µM
TGI [51]: > 100 µM
TGI [52]: 49.6 µM
TGI [53]: 40.9 µM
TGI [54]: 33 µM
TGI [55]: > 100 µM
TGI [56]: 52.7 µM
TGI [57]: 77.4 µM

COC(=O)/C(C#N)=C(\Nc1ccccc1)N1CCCC1
TGI [1]: > 100 µM
TGI [2]: > 100 µM
TGI [3]: > 100 µM
TGI [4]: > 100 µM
TGI [5]: > 100 µM
TGI [6]: > 100 µM
TGI [7]: > 100 µM
TGI [8]: > 100 µM
TGI [9]: > 100 µM
TGI [10]: > 100 µM
TGI [11]: > 100 µM
TGI [12]: > 100 µM
TGI [13]: > 100 µM
TGI [14]: > 100 µM
TGI [16]: > 100 µM
TGI [17]: > 100 µM
TGI [58]: > 100 µM
TGI [18]: > 100 µM
TGI [19]: > 100 µM
TGI [20]: > 100 µM
TGI [21]: > 100 µM
TGI [22]: > 100 µM
TGI [23]: > 100 µM
TGI [24]: > 100 µM
TGI [25]: > 100 µM
TGI [26]: > 100 µM
TGI [27]: > 100 µM
TGI [28]: > 100 µM
TGI [29]: > 100 µM
TGI [31]: > 100 µM
TGI [32]: > 100 µM
TGI [33]: > 100 µM
TGI [34]: > 100 µM
TGI [35]: > 100 µM
TGI [36]: > 100 µM
TGI [37]: > 100 µM
TGI [38]: > 100 µM
TGI [40]: > 100 µM
TGI [41]: > 100 µM
TGI [42]: > 100 µM
TGI [43]: > 100 µM
TGI [44]: > 100 µM
TGI [45]: > 100 µM
TGI [46]: > 100 µM
TGI [47]: > 100 µM
TGI [59]: > 100 µM
TGI [48]: > 100 µM
TGI [49]: > 100 µM
TGI [50]: > 100 µM
TGI [51]: > 100 µM
TGI [52]: > 100 µM
TGI [53]: > 100 µM
TGI [54]: > 100 µM
TGI [55]: > 100 µM
TGI [56]: > 100 µM
TGI [57]: > 100 µM
